Data as given in PMC6271245, “Discovery of Gramine Derivatives That Inhibit the Early Stage of EV71 Replication in Vitro” (Molecules, 2014).
Values after ≈ are worked out from the molar mass of the structure shown.

Columns and labels:
Enterovirus 71 (EV71) [1] = experiment: Inhibition of EV71-induced cytopathogenicity (CPE) in RD cells, MTT; assay type: cell-based; conditions: for EC50: Enterovirus A, read-out: EC50 (µg/mL) RD; for inhibition of virus-induced CPE (morphology): 10 µg/mL 4a, 20 µg/mL 4i, 40 µg/mL 4r or 4s, 48 h pi
Experimental: (§1) The antiviral activities of gramine and its derivatives against EV71 based on inhibition of virus-induced cytopathogenicity effects (CPEs) in African green monkey kidney cells (Vero) and rhabdomyosarcoma cells (RD) were examined. The cytotoxic effects were also evaluated. The inhibitory activities expressed as half maximal effective concentration (EC50) values and selectivity indexes (SI) for the target compounds are presented in Table 1, and the dose-dependent antiviral effects are shown in Figure 1A.
(§2) The activity of compounds against EV71 was determined based on the inhibition of virus-induced cytopathogenicity effects (CPEs) in acutely infected cells. Vero and RD cells grown to 90% confluency in 96-well dishes were washed with phosphate buffered saline (PBS) and infected with 100 TCID50 of EV71 mixed with serial dilutions of tested compounds for 1.5 h at 37 °C. The inoculum was aspirated and cells were incubated with DMEM and test compounds at 37 °C, 5% CO2 for 48 h. The CPEs were observed microscopically and the viability of the cells was determined with a 3-(4,5-dimethylthiazol-2-yl)-2,5-diphenyltetrazolium bromide (MTT) assay. The concentrations required for the test compounds to achieve 50% protection from virus-induced cytopathogenicity (EC50) were determined. Adverse effects of these compounds on the host cells were also assessed by means of the MTT-method; by exposing uninfected cells to various concentrations of test compounds for 48 h at 37 °C, the viability of the cells was detected. The 50% cell cytotoxic concentrations (CC50) of compounds were calculated with the SPSS software (SPSS, Chicago, IL, USA). Selectivity indexes were calculated as the ratio of CC50: EC50.
(§3) Cell viability was assessed by an MTT assay, which functions based on the reduction of a MTT into formazan dye by active mitochondria. The cells were treated with 100 µL of MTT (1 mg/mL, Sigma, St. Louis, MO, USA) and incubated at 37 °C for 4 h. The reaction was blocked by DMSO and measured in a microplate reader (Bio-Tek Instruments, Winooski, VT, USA) at 492 nm. The untreated control was arbitrarily set as 100%.

EV71 [2] = experiment: Effect on EV71 release from RD cells; assay type: cell-based, Enterovirus 71; conditions: 10 µg/mL 4a, 20 µg/mL 4i, 40 µg/mL 4r or 4s after infection, supernatants and cells harvested together or separately at 12 h
Experimental: Figure 2 Analysis of modes of action against EV71 of gramine derivatives. Analysis of effective stage. The RD cells were treated with tested compounds before, simultaneously or after EV71 (100 TCID50) inoculation: antiviral effects were detected by measuring (A) cell viability and (B) progeny virus yields (10 µg/mL 4a, 20 µg/mL 4i, 40 µg/mL 4r and 4s) 48 h post infection; (C) Analysis of the effects on EV71 adsorption. Mock- or 10 µg/mL 4a, 20 µg/mL 4i, 40 µg/mL 4r and 4s-treated EV71 (10^4 TCID50) was spinoculated onto RD cells and adsorbed for 2 h; intracellular virus was subjected to titration using the TCID50 method; (D) Effects on EV71 release from RD cells. RD cells infected with 100 TCID50 of EV71 were incubated with 10 µg/mL 4a, 20 µg/mL 4i, 40 µg/mL 4r and 4s for 12 h, of both cells and supernatants (intra- and extracellular), or of cells or supernatants harvested separately for virus titration. […] Values represent the mean ± standard deviation of three independent experiments.
A possible effect of the compounds on viral release from cells was tested. The RD cells were treated with or without 10 µg/mL 4a, 20 µg/mL 4i, or 40 µg/mL 4r or 4s after EV71 infection, and the supernatants and cells were harvested together or separately for analysis of progeny virus yields at 12 h.
(§4) The virus suspension, serially diluted 10-fold with DMEM containing 2% FBS, was inoculated to cells in a 96-well plate. After 1 h incubation at 37 °C in 5% CO2, unbinding virus was washed out and MM was added to the cells. After 2 days, the infected cells were monitored for cytopathic effects (CPEs). The virus titer was calculated by the Reed–Muench method.

Enterovirus 71 (EV71) [3] = experiment: Inhibition of EV71-induced cytopathogenicity (CPE) in Vero cells, MTT; assay type: cell-based; conditions: Enterovirus A, read-out: EC50 (µg/mL) Vero
Experimental: as §1
Figure 1 Gramine and its synthetic derivatives inhibited virus-induced CPE. (A) Vero cells were infected with 100 TCID50 of EV71 mixed with serial dilutions of tested compounds for 1.5 h at 37 °C; the inoculum was aspirated and cells were incubated with DMEM/tested compounds at 37 °C, 5% CO2 for 48 h pi. The viability of the cells was determined with an MTT assay; (B) Morphology image of Vero and RD cells treated with compounds 4a, 4i, 4r, and 4s for 48 h pi. (magnification, 20×).
as §2, §3

EV71 [4] = experiment: Direct inactivation of virions (virucidal test), TCID50 titration; assay type: cell-based, Enterovirus 71; conditions: 10^4 TCID50 EV71 incubated with 20 µg/mL 4a, 40 µg/mL 4i, 80 µg/mL 4r or 4s for 24 h at 4 °C; data not shown
Experimental: Based on structure specificity, antiviral activity, and selectivity therapeutic index, compounds 4a, 4i, 4r and 4s were chosen for further investigation on modes of action against EV71 infection. To determine whether these gramine derivatives inactivated virions directly, 10^4 TCID50 (median tissue culture infective dose) of EV71 suspension was incubated with 20 µg/mL 4a, 40 µg/mL 4i, or 80 µg/mL 4r or 4s for 24 h at 4 °C; subsequently, the virus titers in the mixture were measured by inoculating 100-fold dilution of the mixtures beyond the effective concentrations of the compounds into the host cells. The TCID50 values were calculated by the Reed-Muench method based on the CPE observed on day 2 post inoculation (pi). […] Thus, these compounds appear not to be virucidal for the viruses tested.
as §4

[5] = Cytotoxicity on uninfected Vero cells, MTT; assay type: cell-based; conditions: African green monkey; concentration reducing cell viability by 50%; uninfected Vero cells, 48 h, MTT; read-out: CC50 (µg/mL) Vero
Experimental: as §1, §2, §3

EV71 [6] = experiment: Analysis of effective stage (treatment before, during or post infection) in RD cells; assay type: cell-based, Enterovirus 71; conditions: up to a concentration of 40 µg/mL
[7] = concentration for 50% protection from virus-induced cytopathogenicity, RD cells, 100 TCID50 EV71, 48 h, MTT
[8] = concentration for 50% protection from virus-induced cytopathogenicity, Vero cells, 100 TCID50 EV71, 48 h, MTT, mean ± SD of three experiments

Row | EC50 (Enterovirus 71 (EV71) [1]; [7]) | EC50 (Enterovirus 71 (EV71) [3]; [8]) | Compound | inhibition of virus-induced CPE (morphology) (Enterovirus 71 (EV71) [1]; RD cells) | effect on release of EV71 from cells (EV71 [2]) | virus titers of mixture with vs without compound (virucidal effect) (EV71 [4]) | CC50 at 48 h [5] | EC50 (Enterovirus 71 (EV71) [1]; EV71, RD, 48 h) | morphological cytotoxicity (EV71 [6]) | EC50 (Enterovirus 71 (EV71) [3]; EV71, Vero, 48 h)
1 | 6.1 ± 3.2 µg/mL (≈ 18.4 µM) | 5.5 ± 1.6 µg/mL (≈ 16.6 µM) | Cn1cc(C(Nc2ccccn2)c2ccc(F)cc2)c2ccccc21 (centres unmarked) [Compound 4i] | nearly complete inhibition of CPE | no effect on the release of EV71 | No significant difference in virus titers | 71.1 ± 3.8 µg/mL (≈ 215 µM) | – | – | –
2 | – | – | c1ccc(C(Nc2nc3ccccc3s2)c2c[nH]c3ccccc23)nc1 (centres unmarked) [Compound 4s] | nearly complete inhibition of CPE | no effect on the release of EV71 | No significant difference in virus titers | 109 ± 16.8 µg/mL (≈ 305 µM) | 9.1 ± 3.1 µg/mL (≈ 25.5 µM) | no morphological cytotoxicity was observed | 7.6 ± 2.5 µg/mL (≈ 21.3 µM)
3 | 5.5 ± 2.4 µg/mL (≈ 18.4 µM) | 12.7 ± 3.2 µg/mL (≈ 42.4 µM) | c1ccc(C(Nc2ccccn2)c2c[nH]c3ccccc23)cc1 (centres unmarked) [Compound 4a] | nearly complete inhibition of CPE | no effect on the release of EV71 | No significant difference in virus titers | 32.6 ± 3.5 µg/mL (≈ 109 µM) | – | – | –
4 | 7.3 ± 1.3 µg/mL (≈ 18.8 µM) | 9.9 ± 1.4 µg/mL (≈ 25.5 µM) | Cn1cc(C(Nc2nc3ccccc3s2)c2ccccc2F)c2ccccc21 (centres unmarked) [Compound 4r] | nearly complete inhibition of CPE | no effect on the release of EV71 | No significant difference in virus titers | 132 ± 8.3 µg/mL (≈ 342 µM) | – | no morphological cytotoxicity was observed | –
